Where “and” joins values, the source holds several entries; their conditions need not be identical. Equal entries are not always repeated. Each block holds one molecule with its values, some of them ahead of it.
How the values were obtained:
[1] = target: T1, 5-hydroxytryptamine receptor 2C (Homo sapiens, UniProt P28335); test: Displacement of radioligand from human recombinant 5HT2C receptor
T1 sequence (P28335 whole entry): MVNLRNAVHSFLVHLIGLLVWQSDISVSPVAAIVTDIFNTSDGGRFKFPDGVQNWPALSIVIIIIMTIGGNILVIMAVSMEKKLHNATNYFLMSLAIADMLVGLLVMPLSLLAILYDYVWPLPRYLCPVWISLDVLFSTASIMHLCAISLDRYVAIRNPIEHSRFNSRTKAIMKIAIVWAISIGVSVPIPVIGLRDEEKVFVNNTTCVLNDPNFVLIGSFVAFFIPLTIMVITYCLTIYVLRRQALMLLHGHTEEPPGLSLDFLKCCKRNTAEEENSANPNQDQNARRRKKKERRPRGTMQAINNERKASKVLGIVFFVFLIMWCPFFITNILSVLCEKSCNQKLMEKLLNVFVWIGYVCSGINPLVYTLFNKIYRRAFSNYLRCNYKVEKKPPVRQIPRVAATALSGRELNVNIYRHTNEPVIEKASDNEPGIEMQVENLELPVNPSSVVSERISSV

[2] = target: T2, 5-hydroxytryptamine receptor 2A (Homo sapiens, UniProt P28223); test: Displacement of radioligand from human recombinant 5HT2A receptor
T2 sequence (P28223 whole entry): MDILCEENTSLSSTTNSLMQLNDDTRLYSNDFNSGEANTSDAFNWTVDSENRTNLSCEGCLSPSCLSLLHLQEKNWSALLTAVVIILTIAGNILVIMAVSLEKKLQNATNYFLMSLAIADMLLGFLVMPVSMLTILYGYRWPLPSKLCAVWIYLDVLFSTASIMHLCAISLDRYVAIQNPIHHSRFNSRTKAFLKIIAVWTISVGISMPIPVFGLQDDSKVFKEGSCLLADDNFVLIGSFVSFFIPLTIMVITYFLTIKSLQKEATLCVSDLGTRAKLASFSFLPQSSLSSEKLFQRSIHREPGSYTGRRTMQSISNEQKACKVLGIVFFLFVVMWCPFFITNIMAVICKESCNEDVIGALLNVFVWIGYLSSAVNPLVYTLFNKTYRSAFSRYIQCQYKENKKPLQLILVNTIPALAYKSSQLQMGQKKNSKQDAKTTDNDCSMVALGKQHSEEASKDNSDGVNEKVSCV

[3] = target: T3, 5-hydroxytryptamine receptor 6 (Homo sapiens, UniProt P50406); test: Displacement of radioligand from human recombinant 5HT6 receptor
T3 sequence (P50406 whole entry): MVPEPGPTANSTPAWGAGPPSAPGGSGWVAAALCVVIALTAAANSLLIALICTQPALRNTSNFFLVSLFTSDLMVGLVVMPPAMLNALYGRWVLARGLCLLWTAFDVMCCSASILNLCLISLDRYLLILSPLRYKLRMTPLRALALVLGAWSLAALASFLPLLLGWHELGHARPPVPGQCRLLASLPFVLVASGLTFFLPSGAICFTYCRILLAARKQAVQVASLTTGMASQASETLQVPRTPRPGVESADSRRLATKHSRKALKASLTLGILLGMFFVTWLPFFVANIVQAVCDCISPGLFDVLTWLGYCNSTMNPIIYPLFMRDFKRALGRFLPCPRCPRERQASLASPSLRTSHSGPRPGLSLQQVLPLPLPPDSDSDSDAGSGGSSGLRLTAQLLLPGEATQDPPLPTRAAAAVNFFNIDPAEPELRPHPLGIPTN

D(3) dopamine receptor [4] = target: T4, D(3) dopamine receptor (Homo sapiens, UniProt P35462); test: Displacement of [125I]iodosulpiride from human recombinant dopamine D3 receptor expressed in CHO cells; type: cell-based
T4 sequence (P35462 whole entry): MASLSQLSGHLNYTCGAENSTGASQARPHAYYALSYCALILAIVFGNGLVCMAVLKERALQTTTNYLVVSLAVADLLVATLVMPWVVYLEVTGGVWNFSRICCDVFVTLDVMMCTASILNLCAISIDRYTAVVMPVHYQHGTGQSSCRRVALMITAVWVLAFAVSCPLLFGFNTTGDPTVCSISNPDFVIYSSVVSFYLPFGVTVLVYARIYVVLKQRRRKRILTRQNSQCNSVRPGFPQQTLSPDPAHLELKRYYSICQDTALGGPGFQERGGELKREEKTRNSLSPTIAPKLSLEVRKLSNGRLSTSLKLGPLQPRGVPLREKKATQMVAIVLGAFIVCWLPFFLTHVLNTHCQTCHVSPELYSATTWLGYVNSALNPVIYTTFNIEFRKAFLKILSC

D(2) dopamine receptor [5] = target: T5, D(2) dopamine receptor (Homo sapiens, UniProt P14416); test: Displacement of [125I]iodosulpiride from human recombinant dopamine D2 receptor expressed in CHO cells; type: cell-based
T5 sequence (P14416 whole entry): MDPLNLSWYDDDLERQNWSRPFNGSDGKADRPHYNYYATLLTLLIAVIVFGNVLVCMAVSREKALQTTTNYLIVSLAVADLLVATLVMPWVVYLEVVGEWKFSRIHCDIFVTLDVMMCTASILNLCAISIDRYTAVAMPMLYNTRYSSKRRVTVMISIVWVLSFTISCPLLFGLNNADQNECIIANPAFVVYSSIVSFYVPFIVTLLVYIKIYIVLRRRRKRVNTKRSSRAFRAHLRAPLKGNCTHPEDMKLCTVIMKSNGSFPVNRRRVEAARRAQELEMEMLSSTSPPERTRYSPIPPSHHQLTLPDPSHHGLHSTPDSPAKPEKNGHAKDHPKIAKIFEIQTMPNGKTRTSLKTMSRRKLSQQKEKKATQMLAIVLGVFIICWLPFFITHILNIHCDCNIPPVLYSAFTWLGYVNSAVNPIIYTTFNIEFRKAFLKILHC

Cytochrome P450 1A2 = target: T6, Cytochrome P450 1A2 (Homo sapiens, UniProt P05177); test: Inhibition of CYP1A2; type: ADME
T6 sequence (P05177 whole entry): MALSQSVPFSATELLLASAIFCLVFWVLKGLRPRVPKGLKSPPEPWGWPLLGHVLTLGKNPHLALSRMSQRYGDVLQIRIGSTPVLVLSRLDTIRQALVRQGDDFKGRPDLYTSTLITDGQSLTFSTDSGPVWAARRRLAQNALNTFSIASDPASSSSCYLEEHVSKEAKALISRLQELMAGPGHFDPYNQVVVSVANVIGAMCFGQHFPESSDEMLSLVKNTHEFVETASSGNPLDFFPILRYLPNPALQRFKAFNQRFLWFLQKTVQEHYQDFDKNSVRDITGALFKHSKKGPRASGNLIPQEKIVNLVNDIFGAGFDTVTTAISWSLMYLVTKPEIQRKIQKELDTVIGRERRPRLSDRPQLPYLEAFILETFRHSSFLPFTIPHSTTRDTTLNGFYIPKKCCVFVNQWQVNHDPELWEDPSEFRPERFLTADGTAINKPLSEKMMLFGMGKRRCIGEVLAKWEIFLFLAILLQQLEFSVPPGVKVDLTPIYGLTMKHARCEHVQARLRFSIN

Cytochrome P450 2D6 = Cytochrome P450 2D6 (Homo sapiens, UniProt P10635); test: Inhibition of CYP2D6; type: ADME
Cytochrome P450 2D6, sequence (P10635 whole entry): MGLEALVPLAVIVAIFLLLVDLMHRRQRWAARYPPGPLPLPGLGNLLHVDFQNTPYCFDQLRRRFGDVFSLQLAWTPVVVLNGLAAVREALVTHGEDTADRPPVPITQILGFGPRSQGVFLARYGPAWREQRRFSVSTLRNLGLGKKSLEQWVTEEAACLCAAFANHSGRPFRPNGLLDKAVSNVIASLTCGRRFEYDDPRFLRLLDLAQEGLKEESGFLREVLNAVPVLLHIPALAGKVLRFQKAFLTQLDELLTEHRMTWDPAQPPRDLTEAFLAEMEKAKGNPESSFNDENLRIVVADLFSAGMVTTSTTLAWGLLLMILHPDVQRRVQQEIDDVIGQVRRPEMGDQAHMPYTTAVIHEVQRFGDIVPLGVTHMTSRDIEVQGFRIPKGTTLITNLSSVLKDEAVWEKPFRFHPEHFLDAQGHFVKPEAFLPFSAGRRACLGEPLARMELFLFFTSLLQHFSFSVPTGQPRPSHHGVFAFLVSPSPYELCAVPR

Cytochrome P450 2C19 = Cytochrome P450 2C19 (Homo sapiens, UniProt P33261); test: Inhibition of CYP2C19; type: ADME
Cytochrome P450 2C19, sequence (P33261 whole entry): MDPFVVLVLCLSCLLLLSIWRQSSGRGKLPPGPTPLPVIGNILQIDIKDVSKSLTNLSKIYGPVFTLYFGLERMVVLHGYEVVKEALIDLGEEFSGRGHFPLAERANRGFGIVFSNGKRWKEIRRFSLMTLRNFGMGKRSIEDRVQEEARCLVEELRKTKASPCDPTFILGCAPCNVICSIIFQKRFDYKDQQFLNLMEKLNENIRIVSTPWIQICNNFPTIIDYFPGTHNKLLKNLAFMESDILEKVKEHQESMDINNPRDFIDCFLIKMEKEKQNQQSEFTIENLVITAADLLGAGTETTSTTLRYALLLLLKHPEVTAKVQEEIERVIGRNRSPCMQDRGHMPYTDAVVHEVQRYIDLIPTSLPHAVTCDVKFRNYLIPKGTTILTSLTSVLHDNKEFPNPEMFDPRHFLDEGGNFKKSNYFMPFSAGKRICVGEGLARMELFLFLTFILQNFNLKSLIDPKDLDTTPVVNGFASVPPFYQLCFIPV

Cytochrome P450 2C9 = Cytochrome P450 2C9 (Homo sapiens, UniProt P11712); test: Inhibition of CYP2C9; type: ADME
Cytochrome P450 2C9, sequence (P11712 whole entry): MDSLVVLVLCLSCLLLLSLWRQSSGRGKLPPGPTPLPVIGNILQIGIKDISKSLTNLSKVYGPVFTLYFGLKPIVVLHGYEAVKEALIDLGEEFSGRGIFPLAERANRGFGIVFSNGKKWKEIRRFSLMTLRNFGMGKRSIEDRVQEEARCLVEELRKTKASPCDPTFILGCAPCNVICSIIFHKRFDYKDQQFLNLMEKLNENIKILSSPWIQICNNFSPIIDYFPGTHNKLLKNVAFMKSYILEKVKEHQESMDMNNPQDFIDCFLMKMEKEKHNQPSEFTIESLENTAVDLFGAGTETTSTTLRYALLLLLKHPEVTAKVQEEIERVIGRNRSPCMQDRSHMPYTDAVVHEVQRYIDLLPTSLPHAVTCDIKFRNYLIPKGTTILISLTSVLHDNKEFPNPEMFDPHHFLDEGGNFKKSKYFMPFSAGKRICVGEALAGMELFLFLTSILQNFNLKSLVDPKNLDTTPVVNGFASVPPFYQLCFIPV

Cytochrome P450 3A4 = Cytochrome P450 3A4 (Homo sapiens, UniProt P08684); test: Inhibition of CYP3A4; type: ADME
Cytochrome P450 3A4, sequence (P08684 whole entry): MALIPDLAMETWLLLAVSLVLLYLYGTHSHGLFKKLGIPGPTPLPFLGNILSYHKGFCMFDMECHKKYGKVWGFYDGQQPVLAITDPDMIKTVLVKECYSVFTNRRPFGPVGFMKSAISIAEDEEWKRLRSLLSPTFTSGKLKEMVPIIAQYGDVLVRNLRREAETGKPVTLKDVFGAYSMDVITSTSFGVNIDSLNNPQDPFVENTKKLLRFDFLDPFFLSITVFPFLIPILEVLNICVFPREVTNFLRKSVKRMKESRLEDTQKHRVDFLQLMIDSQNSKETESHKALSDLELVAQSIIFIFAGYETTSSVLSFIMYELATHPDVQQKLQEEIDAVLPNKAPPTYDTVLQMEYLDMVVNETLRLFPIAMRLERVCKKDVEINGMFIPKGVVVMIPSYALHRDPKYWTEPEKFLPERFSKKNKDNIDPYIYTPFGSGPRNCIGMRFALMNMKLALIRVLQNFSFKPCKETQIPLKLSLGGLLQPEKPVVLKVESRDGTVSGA

[6] = target: T3, 5-hydroxytryptamine receptor 6; test: Agonist activity at human 5HT6 receptor by cAMP assay; type: functional
Rattus norvegicus [7] = test: Toxicity assessed as induction of catalepsy in rat model of extra-pyramidal side effect up to 100 mg/kg, po; type: organism-based; set-up: dose 100 mg/kg, route oral; conditions: in vivo
D(2) dopamine receptor [8] = target: T5, D(2) dopamine receptor; test: Agonist activity at human dopamine D2 receptor by [35S]GTPgammaS binding assay; type: functional
[9] = target: T2, 5-hydroxytryptamine receptor 2A; test: Agonist activity at human 5HT2A receptor by FLIPR assay; type: functional
Rattus norvegicus [10] = test: Reversal of amphetamine-induced hyperactivity in orally dosed rat; type: functional; conditions: po
D(3) dopamine receptor [11] = target: T4, D(3) dopamine receptor; test: Agonist activity at human dopamine D3 receptor by [35S]GTP-gamma-S binding assay; type: functional
[12] = target: T1, 5-hydroxytryptamine receptor 2C; test: Agonist activity at human 5HT2C receptor by FLIPR assay; type: functional

Compound: Cc1noc(C)c1-c1ccc(S(=O)(=O)Nc2ccc3c(c2)CCN(C)CC3)cc1
Ki [1]: 398 nM
Ki [2]: 1260 nM
Ki [3]: 10 nM
Ki (D(3) dopamine receptor [4]): 15.8 nM
Ki (D(2) dopamine receptor [5]): 100 nM

Compound: COc1cc2c(cc1NS(=O)(=O)c1ccc(-c3ccc(Cl)cc3)cc1)CCN(C)CC2
Ki [1]: 39.8 nM
Ki [2]: 25.1 nM
Ki [3]: 10 nM
Ki (D(3) dopamine receptor [4]): 0.794 nM
Ki (D(2) dopamine receptor [5]): 3.98 nM

Compound: CCCCc1ccc(S(=O)(=O)Nc2ccc3c(c2)CNC3)cc1
Ki [3]: 50.1 nM
Ki (D(3) dopamine receptor [4]): 39.8 nM
Ki (D(2) dopamine receptor [5]): 794 nM

Compound: CCCCc1ccc(S(=O)(=O)Nc2ccc3c(c2)CN(C)CC3)cc1
Ki (D(3) dopamine receptor [4]): 25.1 nM
Ki (D(2) dopamine receptor [5]): 398 nM

Compound: CC(C)Oc1cc2c(cc1NS(=O)(=O)c1ccc(-c3ccc(Cl)cc3)cc1)CCN(C)CC2
Ki [1]: 39.8 nM
Ki [2]: 15.8 nM
Ki [3]: 31.6 nM
Ki (D(3) dopamine receptor [4]): 0.794 nM
Ki (D(2) dopamine receptor [5]): 6.31 nM

Compound: CN1CCc2cc(Br)c(NS(=O)(=O)c3ccc(-c4ccc(Cl)cc4)cc3)cc2CC1
Ki [1]: 126 nM
Ki [3]: 50.1 nM
Ki (D(3) dopamine receptor [4]): 5.01 nM
Ki (D(2) dopamine receptor [5]): 63.1 nM

Compound: CN1CCc2ccc(NS(=O)(=O)c3ccc(-c4ccc(C#N)cc4)cc3)cc2CC1
Ki [1]: 100 nM
Ki [2]: 794 nM
Ki [3]: 25.1 nM
Ki (D(3) dopamine receptor [4]): 15.8 nM
Ki (D(2) dopamine receptor [5]): 501 nM

Compound: CN1CCc2cc(Cl)c(NS(=O)(=O)c3ccc(-c4ccc(Cl)cc4)cc3)cc2CC1
Ki [1]: 39.8 nM
Ki [2]: 31.6 nM
Ki [3]: 50.1 nM
Ki (D(3) dopamine receptor [4]): 2.51 nM
Ki (D(2) dopamine receptor [5]): 39.8 nM

Compound: CCCCc1ccc(S(=O)(=O)Nc2ccc3c(c2)CNCC3)cc1
Ki [1]: 31.6 nM
Log Ki [1]: -7.5
Ki [2]: 12.6 nM
Log Ki [2]: -7.9
Ki [3]: 25.1 nM
Log Ki [3]: -7.6
Ki (D(3) dopamine receptor [4]): 12.6 nM and 10 nM
Ki (D(2) dopamine receptor [5]): 794 nM and 1000 nM

Compound: Cc1cc2c(cc1NS(=O)(=O)c1ccc(-c3ccc(Cl)cc3)cc1)CCN(C)CC2
Ki [1]: 79.4 nM
Ki [2]: 20 nM
Ki [3]: 15.8 nM
Ki (D(3) dopamine receptor [4]): 1.58 nM
Ki (D(2) dopamine receptor [5]): 15.8 nM

Compound: CC(C)c1cc2c(cc1NS(=O)(=O)c1ccc(-c3ccc(Cl)cc3)cc1)CCN(C)CC2
Ki [1]: 15.8 nM
Ki [2]: 5.01 nM
Ki [3]: 12.6 nM
Ki (D(3) dopamine receptor [4]): 3.98 nM
Ki (D(2) dopamine receptor [5]): 100 nM

The next lines start with results.

Ki [1]: 50.1 nM
Ki [2]: 126 nM
Ki [3]: 5.01 nM
Ki (D(3) dopamine receptor [4]): 6.31 nM
Ki (D(2) dopamine receptor [5]): 31.6 nM
Compound: Cc1cc(S(=O)(=O)Nc2ccc3c(c2)CCN(C)CC3)ccc1-c1ccc(Cl)cc1

Ki [1]: 12.6 nM
Ki [2]: 50.1 nM
Ki [3]: 6.31 nM
Ki (D(3) dopamine receptor [4]): 25.1 nM
Ki (D(2) dopamine receptor [5]): 316 nM
Compound: Cc1ccc(-c2ccc(S(=O)(=O)Nc3ccc4c(c3)CCN(C)CC4)cc2)s1

IC50 (Cytochrome P450 1A2): 23000 nM
IC50 (Cytochrome P450 2D6): 1600 nM
IC50 (Cytochrome P450 2C19): 500 nM
IC50 (Cytochrome P450 2C9): 47000 nM
Ki [1]: 10 nM
Ki [2]: 5.01 nM
Ki [3]: 1.26 nM
IC50 (Cytochrome P450 3A4): 12000 nM
Ki (D(3) dopamine receptor [4]): 2 nM
Ki (D(2) dopamine receptor [5]): 31.6 nM
Compound: CCCCc1ccc(S(=O)(=O)Nc2ccc3c(c2)CCN(C)CC3)cc1

IC50 (Cytochrome P450 1A2): 51000 nM
EC50 [6]: > 25100 nM
EC50 (D(2) dopamine receptor [8]): > 10000 nM
IC50 (Cytochrome P450 2D6): 19000 nM
IC50 (Cytochrome P450 2C19): 25000 nM
IC50 (Cytochrome P450 2C9): 17000 nM
EC50 [9]: > 12600 nM
Ki [1]: 5.01 nM
Ki [2]: 1.58 nM
Ki [3]: 7.94 nM
IC50 (Cytochrome P450 3A4): 7500 nM
Ki (D(3) dopamine receptor [4]): 3.16 nM
EC50 (D(3) dopamine receptor [11]): > 10000 nM
Ki (D(2) dopamine receptor [5]): 50.1 nM
EC50 [12]: > 12600 nM
Compound: CC(C)Nc1cc2c(cc1NS(=O)(=O)c1ccc(-c3ccc(Cl)cc3)cc1)CCN(C)CC2
Activity (Rattus norvegicus [7]): Not Active
ED50 (Rattus norvegicus [10]): 20.6 mg/kg

IC50 (Cytochrome P450 1A2): 25000 nM
IC50 (Cytochrome P450 2D6): 1500 nM
IC50 (Cytochrome P450 2C19): 16000 nM
IC50 (Cytochrome P450 2C9): 45000 nM
Ki [1]: 20 nM
Ki [2]: 200 nM
Ki [3]: 5.01 nM
IC50 (Cytochrome P450 3A4): 58000 nM
Ki (D(3) dopamine receptor [4]): 15.8 nM
Ki (D(2) dopamine receptor [5]): 158 nM
Compound: CN1CCc2ccc(NS(=O)(=O)c3ccc(-c4ccc(Cl)cc4)cc3)cc2CC1

Ki [1]: 31.6 nM
Ki [2]: 50.1 nM
Ki [3]: 7.94 nM
Ki (D(3) dopamine receptor [4]): 3.98 nM
Ki (D(2) dopamine receptor [5]): 50.1 nM
Compound: CN1CCc2ccc(NS(=O)(=O)c3ccc(-c4ccc(F)c(Cl)c4)cc3)cc2CC1

Ki [1]: 50.1 nM
Ki [2]: 15.8 nM
Ki [3]: 2 nM
Ki (D(3) dopamine receptor [4]): 15.8 nM
Ki (D(2) dopamine receptor [5]): 158 nM
Compound: CCCCc1ccc(S(=O)(=O)Nc2ccc3c(c2)CCNCC3)cc1

Ki [1]: 126 nM
Ki [3]: 3.98 nM
Ki (D(3) dopamine receptor [4]): 39.8 nM
Ki (D(2) dopamine receptor [5]): 398 nM
Compound: CN1CCc2ccc(NS(=O)(=O)c3ccc(-c4ccc(Cl)cc4)s3)cc2CC1

Ki [1]: 10 nM
Ki [2]: 5.01 nM
Ki [3]: 5.01 nM
Ki (D(3) dopamine receptor [4]): 20 nM
Ki (D(2) dopamine receptor [5]): 200 nM
Compound: CCCCc1ccc(S(=O)(=O)Nc2ccc3c(c2)CN(C)C3)cc1

Reference: ChEMBL document CHEMBL1143778, “Studies towards the identification of a new generation of atypical antipsychotic agents” (Bioorg Med Chem Lett, 2007)
